Test results as given in ChEMBL document CHEMBL2016454, “Design and synthesis of dihydrobenzofuran amides as orally bioavailable, centrally active γ-secretase modulators” (Bioorg Med Chem Lett, 2012).
Activity calls are given as the source filed them. The rule behind the calls is not given here.

Experiments:
[1] = Intrinsic clearance in human liver microsomes; type: ADME, Microsome; conditions: read-out: CLH
[2] = Inhibition of gamma secretase expressed in CHO cells expressing APP assessed as amyloid beta42 production; type: cell-based
MDR1 (P-gp), human = assay: Efflux ratio of permeability in MDCK cells over expressing human MDR1; type: ADME, cell-based, Canis lupus familiaris; conditions: dog
[3] = Half life in rat; type: ADME, organism-based; conditions: in vivo
[4] = Drug uptake in Hartley guinea pig brain at 100 mg/kg, po after 4 hrs post dose; type: ADME, organism-based, Cavia porcellus; parameters: dose 100 mg/kg, route oral; conditions: read-out: Drug uptake
[5] = Volume of distribution at steady state in rat; type: ADME, organism-based; conditions: in vivo, read-out: Vdss
[6] = Total plasma concentration in Hartley guinea pig at 100 mg/kg, po after 4 hrs post dose; type: ADME, organism-based, Cavia porcellus; parameters: dose 100 mg/kg, route oral
[7] = Fraction unbound in Hartley guinea pig plasma at 100 mg/kg, po after 4 hrs post dose; type: ADME, organism-based, Cavia porcellus; parameters: dose 100 mg/kg, route oral
Cavia porcellus [8] = assay: Antialzheimer activity in Hartley guinea pig assessed as increase of amyloid beta38 level in plasma at 100 mg/kg, po after 4 hrs; type: functional
Cavia porcellus [9] = assay: Antialzheimer activity in Hartley guinea pig assessed as reduction of amyloid beta40 level in brain at 100 mg/kg, po after 4 hrs; type: functional; parameters: scale not given: the % may be the effect or the level left
Cavia porcellus [10] = assay: Antialzheimer activity in Hartley guinea pig assessed as effect on total amyloid beta level in plasma at 100 mg/kg, po after 4 hrs; type: functional, organism-based; parameters: dose 100 mg/kg
Gamma-secretase = assay: Inhibition of gamma-secretase expressed in human HEK293 NdeltaE cells assessed as cleavage of Notch; type: cell-based
[11] = Clearance in rat; type: ADME, organism-based; conditions: in vivo
[12] = Fraction unbound in Hartley guinea pig brain at 100 mg/kg, po after 4 hrs post dose […]; type: ADME, organism-based, Cavia porcellus; parameters: dose 100 mg/kg, route oral
[13] = Oral bioavailability in rat; type: ADME, organism-based; conditions: in vivo
[14] = Ratio of fraction unbound in Hartley guinea pig brain to IC50 of gamma secretase expressed in CHO cells expressing APP assessed as amyloid beta42 production; type: ADME, cell-based
Cavia porcellus [15] = assay: Antialzheimer activity in Hartley guinea pig assessed as reduction of amyloid beta42 level in brain at 100 mg/kg, po after 4 hrs; type: functional; parameters: scale not given: the % may be the effect or the level left
Cavia porcellus [16] = assay: Antialzheimer activity in Hartley guinea pig assessed as effect on total amyloid beta level in brain at 100 mg/kg, po after 4 hrs; type: functional, organism-based; parameters: dose 100 mg/kg
Cytochrome P450 3A4 = Cytochrome P450 3A4 (Homo sapiens, UniProt P08684); assay: Inhibition of CYP3A4; type: ADME
Chain of Cytochrome P450 3A4 (P08684 whole entry): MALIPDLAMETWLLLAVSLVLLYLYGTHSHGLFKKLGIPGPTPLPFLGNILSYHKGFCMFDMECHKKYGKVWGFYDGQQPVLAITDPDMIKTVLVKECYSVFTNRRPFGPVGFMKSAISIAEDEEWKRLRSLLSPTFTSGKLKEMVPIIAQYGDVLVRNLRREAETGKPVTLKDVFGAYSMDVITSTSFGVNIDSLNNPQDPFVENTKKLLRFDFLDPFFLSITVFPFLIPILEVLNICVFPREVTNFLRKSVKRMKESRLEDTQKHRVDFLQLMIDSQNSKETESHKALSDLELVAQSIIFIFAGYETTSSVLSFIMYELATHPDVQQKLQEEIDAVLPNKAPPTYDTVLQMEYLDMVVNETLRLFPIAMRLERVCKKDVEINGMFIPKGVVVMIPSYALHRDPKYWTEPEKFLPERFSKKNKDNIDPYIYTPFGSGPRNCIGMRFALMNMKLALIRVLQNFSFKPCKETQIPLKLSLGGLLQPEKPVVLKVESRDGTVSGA

Cytochrome P450 2D6 = Cytochrome P450 2D6 (Homo sapiens, UniProt P10635); assay: Inhibition of CYP2D6; type: ADME
Chain of Cytochrome P450 2D6 (P10635 whole entry): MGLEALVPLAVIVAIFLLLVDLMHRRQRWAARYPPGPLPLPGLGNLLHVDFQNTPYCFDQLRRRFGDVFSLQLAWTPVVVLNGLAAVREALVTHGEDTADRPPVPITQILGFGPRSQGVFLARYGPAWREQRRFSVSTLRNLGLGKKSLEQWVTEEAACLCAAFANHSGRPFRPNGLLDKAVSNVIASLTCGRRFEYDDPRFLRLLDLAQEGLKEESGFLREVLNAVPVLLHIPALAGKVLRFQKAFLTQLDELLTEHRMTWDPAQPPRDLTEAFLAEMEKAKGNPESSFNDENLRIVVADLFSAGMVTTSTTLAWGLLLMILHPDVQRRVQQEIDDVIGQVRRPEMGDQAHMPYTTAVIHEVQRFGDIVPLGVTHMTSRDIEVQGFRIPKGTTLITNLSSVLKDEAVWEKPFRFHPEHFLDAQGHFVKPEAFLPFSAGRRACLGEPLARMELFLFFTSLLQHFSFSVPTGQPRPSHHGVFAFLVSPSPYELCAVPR

Brain = assay: Ratio of drug level in p-gp knock-out mouse brain to wild type mouse brain; type: ADME, tissue-based; conditions: in vivo

| SMILES | microsomal CLint [1] [µL/min/mg] | IC50 [2] [nM] | efflux ratio (MDR1 (P-gp), human) | further results |
| --- | --- | --- | --- | --- |
| CCOc1cc(C)c(CN(C(=O)c2ccc(-n3cnc(C)c3)c(OC)c2)C2CC2)cc1C(C)C | 122 | 114 | – | – |
| COc1cc(C(=O)N2CC[C@H](Oc3ccccc3C(F)(F)F)C2)cnc1-n1cnc(C)c1 | – | 3440 | 1.6 | – |
| COc1cc(C(=O)NCC2(c3ccc(F)cc3)CCC2)ccc1-n1cnc(C)c1 | 112 | 309 | 1.6 | – |
| COc1cc(C(=O)N[C@H]2COc3ccc(Cl)cc32)ccc1-n1cnc(C)c1 | 22.3 | 521 | 1.6 | half-life [3]: 2.43 h; concentration at 4 h [4]: 22100 ng/g; Vd [5]: 1.87 L; concentration at 4 h [6]: 5120 ng/mL; fraction unbound at 4 h [7]: 0.088; Activity (Cavia porcellus [8]): 72%; Activity (Cavia porcellus [9]): 32%; Activity (Cavia porcellus [10]): inactive; IC50 (Gamma-secretase): > 50000 nM; clearance [11]: 9.63 mL/min/kg; fraction unbound at 4 h [12]: 0.018; bioavailability [13]: 100%; Ratio [14]: 2.1; Activity (Cavia porcellus [15]): 57%; Activity (Cavia porcellus [16]): inactive |
| COc1cc(C(=O)N[C@H]2CCc3ccc(Cl)cc32)ccc1-n1cnc(C)c1 | 32.7 | 605 | 0.5 | – |
| COc1ccc2c(c1)[C@@H](NC(=O)c1ccc(-n3cnc(C)c3)c(OC)c1)CO2 | 16.9 | 2990 | – | – |
| COc1cc(C(=O)N2CC[C@H](Oc3ccccc3C(F)(F)F)C2)ccc1-n1cnc(C)c1 | 50.8 | 320 | 2.5 | – |
| COc1cc(/C=C2\CCCN([C@@H](C)c3ccc(F)cc3)C2=O)ccc1-n1cnc(C)c1 | 37.1 | 143 | 2.2 | – |
| COc1cc(C(=O)NC2COc3cccc(Cl)c32)ccc1-n1cnc(C)c1 (racemic) | 97.3 | 1660 | 1.7 | – |
| COc1nc(C(=O)N2CC[C@H](Oc3ccccc3C(F)(F)F)C2)ccc1-n1cnc(C)c1 | 48.7 | 208 | 1.1 | – |
| COc1nc(C(=O)N2CC[C@H](Oc3ccccc3C(F)(F)F)C2)cnc1-n1cnc(C)c1 | – | 535 | – | – |
| COc1cc(C(=O)NCc2cccc(C(F)(F)F)c2)ccc1-n1cnc(C)c1 | 29.2 | 659 | 1.8 | – |
| COc1nc(C(=O)N[C@H]2COc3ccc(Cl)c(F)c32)ccc1-n1cnc(C)c1 | 30 | 188 | 1.4 | half-life [3]: 0.64 h; concentration at 4 h [4]: 3710 ng/g; IC50 (Cytochrome P450 3A4): > 30000 nM; Vd [5]: 1.78 L; concentration at 4 h [6]: 1290 ng/mL; fraction unbound at 4 h [7]: 0.078; Activity (Cavia porcellus [9]): 16%; IC50 (Gamma-secretase): > 50000 nM; clearance [11]: 31.4 mL/min/kg; fraction unbound at 4 h [12]: 0.0097; bioavailability [13]: 51%; Ratio [14]: 0.31; Activity (Cavia porcellus [15]): 36%; IC50 (Cytochrome P450 2D6): > 30000 nM |
| COc1cc(C(=O)N2CC[C@H](Oc3ccccc3C(F)(F)F)C2)ncc1-n1cnc(C)c1 | – | 5330 | – | – |
| COc1cc(C(=O)N[C@@H](C)c2ccc(F)cc2)ccc1-n1cnc(C)c1 | 12.6 | 4400 | 1.1 | – |
| COc1cc(C(=O)N[C@H]2COc3c(Cl)cccc32)ccc1-n1cnc(C)c1 | 19.4 | 1690 | – | – |
| COc1cc(C(=O)N2CC[C@](O)(COc3ccccc3C(F)(F)F)C2)ccc1-n1cnc(C)c1 | 124 | 256 | 24 | – |
| COc1nc(C(=O)N[C@H]2COc3ccc(Cl)cc32)ccc1-n1cnc(C)c1 | 28 | 343 | 1.3 | – |
| COc1nc(C(=O)NC2COc3ccc(Cl)c(C)c32)ccc1-n1cnc(C)c1 (racemic) | 49.3 | 234 | 1.8 | – |
| COc1cc(C(=O)NC2COc3ccc(F)cc32)ccc1-n1cnc(C)c1 (racemic) | 21.8 | 1560 | – | – |
| COc1cc(C(=O)NCc2cc(-c3cccc(Cl)c3)no2)ccc1-n1cnc(C)c1 | 30 | 330 | 3.8 | – |
| COc1cc(C(=O)NCc2nnc(-c3cccc(Cl)c3)o2)ccc1-n1cnc(C)c1 | – | 1460 | 8.7 | – |
| COc1cc(C(=O)NCc2cnc(-c3ccccc3)s2)ccc1-n1cnc(C)c1 | 29.3 | 332 | 3.2 | Ratio (Brain): 5 |
| COc1cc(C(=O)NC2COc3cc(Cl)ccc32)ccc1-n1cnc(C)c1 (racemic) | 35.6 | 1960 | – | – |
